For one data set, the system named is HBV genome. Put plainly: siRNA IC50 (Table A). The arrangement: species or system Hepatitis B virus.
Data set [1] concerns HBV cccDNA-dependent precore RNA in DESHAe82 cells. Put plainly: DESHAe82 / DE19 cell culture system, cccDNA-derived precore RNA by qRT-PCR, MacSynergy II. The data set is classed as cell-based, Hepatitis B virus. The settings on record: ETV μM: 0.01, 0.0032, 0.001, 0.0003, 0.0001, 3E−05, 0. On the procedure:
In vitro combination studies were conducted using a modification of the assay system described in Cai et al (Antimicrobial Agents Chemotherapy, 2012. Vol 56(8):4277-88). A previously developed HepDE19 cell culture system (Guo et al. J. Virology (2007) 81(22): 12472-12484) supports HBV DNA replication and cccDNA formation in a tetracycline (Tet)-regulated manner, and produces a detectable reporter molecule which is dependent upon the production and maintenance of cccDNA.
In the HepDE19 cell culture system, the reporters are the precore RNA and its cognate protein product, the secreted HBV “e antigen” (HBeAg). In HepDE19 cells, precore RNA and HBeAg are only produced from the cccDNA circular template, because the ORF of HBeAg and its 5′ RNA leader are separated between the opposite ends of the integrated viral genome, and only become contiguous with the formation of cccDNA. Although an assay based on the HepDE19 cell culture system is effective for determining activity, the results of high throughput screening may be complicated because the HBeAg ELISA cross reacts with a viral HBeAg homologue, which is the core antigen (HBcAg) expressed largely in a cccDNA-independent fashion in HepDE19 cells. To overcome this complication, an alternative cell culture system (designated herein as DESHAe82 cell culture system and described in PCT/EP/2015/06838) has been developed which includes an in-frame HA epitope tag in the N-terminal coding sequence of HBeAg in the transgene of DESHAe82 cells, without disrupting any cis-element critical for HBV replication, cccDNA transcription, and HBeAg secretion.
A chemiluminescence ELISA assay (CLIA) for the detection of HA-tagged HBeAg with HA antibody serving as capture antibody and […] has been developed, eliminating the contaminating signal from HBcAg. […] In addition, a protocol for quantitative reverse transcription and polymerase chain reaction (qRT-PCR) that is specific for detection of precore RNA in either DE19 or DESHAe82 cells was developed and is also used for the detection of the cccDNA-dependent mRNA (precore RNA) that is translated to produce HBeAg or HA-HBeAg.
To test the compound combinations, DESHAe82 or DE19 cells (as indicated in examples) were plated in 96 well tissue-culture treated microtiter plates in DMEM/F12 medium supplemented with 10% fetal bovine serum+1% penicillin-streptomycin with Tet, and incubated in a humidified incubator at 37° C. and 5% CO2 overnight. […] The two inhibitors were tested both singly as well as in combinations in a checkerboard fashion such that each test concentration of inhibitor A was combined with each test concentration of inhibitor B to determine their combination effects on inhibition of cccDNA formation and expression. Untreated negative control samples (0.5% DMSO or media only) were included on each plate in multiple wells. Following a 9 day-incubation, media was removed and cells were subjected to RNA extraction to measure the cccDNA-dependent precore mRNA level. Total cellular RNAs were extracted using a 96-well format total RNA isolation kit ([…]-NAGEL, Cat. 740466.4) by following the instruction of manufacturer (vacuum manifold processing, two more extra washes of Buffer RA4). RNA samples were eluted in RNAase-free water. Quantitative real-time RT-PCR was performed with a Roche LightCycler480 and RNA Master Hydrolysis probe (Catalog number 04991885001, Roche) using primers and conditions for specific detection of cccDNA-dependent precore RNA. GAPDH mRNA levels were also detected by standard methods and used to normalize the precore RNA levels.
(In general: In qPCR the cycle at which signal appears reflects the starting amount.)

[UNA] = unlocked nucleic acid; m = 2'-O-methyl; r = 2'-OH (RNA)

“4m: siRNA duplex SEQ ID NO: 7 and 8 targeting the HBV genome (chain 1 GCUCAGUUUACUAGUGCCAUU; chain 2 UGGCACUAGUAAACUGAGCUU; chain 1: sugars from the 5' end [UNA]rmmrmrrrrrrrrrrrmr[UNA][UNA], backbone not given here; chain 2: sugars from the 5' end rrrrrrrrrmrrrrrrrmr[UNA][UNA], backbone not given here) [Compound 4m]” returned an IC50 in the data set on HBV genome of 0.31 nM.

With “5m: siRNA duplex SEQ ID NO: 9 and 10 targeting the HBV genome (chain 1 CCGUGUGCACUUCGCUUCAUU; chain 2 UGAAGCGAAGUGCACACGGUU; chain 1: sugars from the 5' end [UNA]rrrmmrrrrrmrrrmrrrr[UNA], backbone not given here; chain 2: sugars from the 5' end r11 m1 r5 m1 r3, backbone not given here) [Compound 5m]”, in the data set on HBV genome, the IC50 is 0.06 nM.

“6m: siRNA duplex SEQ ID NO: 11 and 12 targeting the HBV genome (chain 1 CUGGCUCAGUUUACUAGUGUU; chain 2 CACUAGUAAACUGAGCCAGUU; chain 1: sugars from the 5' end [UNA]mmmrrrrrrrrrrmrmrrr[UNA], backbone not given here; chain 2: sugars from the 5' end rrrrrmrrrrrrmrmrrrrrr, backbone not given here) [Compound 6m]” returned an IC50 in the data set on HBV genome of 0.05 nM. This IC50 and that of the compound before are within 1.5-fold of each other.

In the data set with HBV genome, “7m: siRNA duplex SEQ ID NO: 13 and 14 targeting the HBV genome (chain 1 CCGUGUGCACUUCGCUUCAUU; chain 2 UGAAGCGAAGUGCACACGGUU; chain 1: sugars from the 5' end [UNA]rrrmmrrrrrmrrrmrrr[UNA][UNA], backbone not given here; chain 2: sugars from the 5' end rrrrrrrrrrrmrrrrrmr[UNA][UNA], backbone not given here) [Compound 7m]” came in with an IC50 of 0.06 nM.

For “8m: siRNA duplex SEQ ID NO: 15 and 16 targeting the HBV genome (chain 1 GCUCAGUUUACUAGUGCCAUU; chain 2 UGGCACUAGUAAACUGAGCUU; chain 1: sugars from the 5' end [UNA]rmrrmrrrrrmrmrrrrr[UNA][UNA], backbone not given here; chain 2: sugars from the 5' end r14 m1 r4 [UNA]2, backbone not given here) [Compound 8m]”, the IC50 in the data set on HBV genome amounted to 0.24 nM.

“9m: siRNA duplex SEQ ID NO: 17 and 18 targeting the HBV genome (chain 1 AGGUAUGUUGCCCGUUUGUUU; chain 2 ACAAACGGGCAACAUACCUUU; chain 1: sugars from the 5' end [UNA]mrmrrrmrrrrrmrmrrr[UNA][UNA], backbone not given here; chain 2: sugars from the 5' end rrrrrrmrrrrrrrmrrrm[UNA][UNA], backbone not given here) [Compound 9m]” came in with an IC50 in the data set with HBV genome of 0.13 nM.

“10m: siRNA duplex SEQ ID NO: 19 and 20 targeting the HBV genome (chain 1 GCCGAUCCAUACUGCGGAAUU; chain 2 UUCCGCAGUAUGGAUCGGCUU; chain 1: sugars from the 5' end [UNA]rrmrmrrrrrrmmrmmrr[UNA][UNA], backbone not given here; chain 2: sugars from the 5' end rrrrrrrmrrrrmrrrrmr[UNA][UNA], backbone not given here) [Compound 10m]” showed an IC50 with HBV genome of 0.34 nM.

The compound “11m: siRNA duplex SEQ ID NO: 21 and 22 targeting the HBV genome (chain 1 GCCGAUCCAUACUGCGGAAUU; chain 2 UUCCGCAGUAUGGAUCGGCUU; chain 1: sugars from the 5' end [UNA]rrmrmrrrrrrmmrmmrrr[UNA], backbone not given here; chain 2: sugars from the 5' end rrrrrrrmrrrrmrrrrmrrr, backbone not given here) [Compound 11m]” had an IC50 in the data set on HBV genome of 0.31 nM.

In the data set with HBV genome, “12m: siRNA duplex SEQ ID NO: 23 and 24 targeting the HBV genome (chain 1 GCCGAUCCAUACUGCGGAAUU; chain 2 UUCCGCAGUAUGGAUCGGCUU; chain 1: sugars from the 5' end [UNA]rrmrmrrrrrrmmrrmrrr[UNA], backbone not given here; chain 2: sugars from the 5' end rrrrrrrmrrrrmrrrrmrrr, backbone not given here) [Compound 12m]” displayed an IC50 of 0.16 nM. This IC50 is about 1.9-fold lower than that of the compound before.

“13m: siRNA duplex SEQ ID NO: 25 and 26 targeting the HBV genome (chain 1 GCCGAUCCAUACUGCGGAAUU; chain 2 UUCCGCAGUAUGGAUCGGCUU; chain 1: sugars from the 5' end [UNA]rrmrmrrrrrrmmrrmrr[UNA][UNA], backbone not given here; chain 2: sugars from the 5' end rrrrrrrmrrrrmrrrrmr[UNA][UNA], backbone not given here) [Compound 13m]” displayed an IC50 in the data set on HBV genome of 0.2 nM.

The compound “14m: siRNA duplex SEQ ID NO: 27 and 28 targeting the HBV genome (chain 1 GCUCAGUUUACUAGUGCCAUU; chain 2 UGGCACUAGUAAACUGAGCUU; chain 1: sugars from the 5' end [UNA]rmrrmrrrrrmrmrrrrrr[UNA], backbone not given here; chain 2: sugars from the 5' end r14 m1 r6, backbone not given here) [Compound 14m]” returned an IC50 in the data set on HBV genome of 0.16 nM.

“15m: siRNA duplex SEQ ID NO: 29 and 30 targeting the HBV genome (chain 1 CUGGCUCAGUUUACUAGUGUU; chain 2 CACUAGUAAACUGAGCCAGUU; chain 1: sugars from the 5' end [UNA]mmrrmrrrrrmrrrrrrr[UNA][UNA], backbone not given here; chain 2: sugars from the 5' end r14 m1 r4 [UNA]2, backbone not given here) [Compound 15m]” gave an IC50 in the data set on HBV genome of 0.17 nM.

`C[C@@H](NS(=O)(=O)c1ccc(F)c(C(=O)Nc2ccc(F)c(F)c2)c1)c1cncs1` [Compound 4]: the “Average percent inhibition versus negative control (precore RNA)” value is −49.48% in data set [1] (Compound 4 0.032 μM); 66.78% in data set [1] (Compound 4 0.100 μM); 94.67% in data set [1] (Compound 4 0.317 μM); 93.92% in data set [1] (Compound 4 1.001 μM); 97.88% in data set [1] (Compound 4 3.165 μM); 97.53% in data set [1] (Compound 4 10 μM).

By IC50 is commonly meant the concentration at which inhibition is half-maximal. Low readings indicate greater potency, high ones weaker potency.

The values above are taken from patent publication US20220265817A1, “THERAPEUTIC COMPOSITIONS AND METHODS FOR TREATING HEPATITIS B” (priority 2017, published 2022).
